{
  "source": "patent US20250206779A1",
  "about": "“ANGIOTENSIN-(1-9) ANALOGUE BASED ON D AMINO ACIDS, PHARMACEUTICAL COMPOSITIONS AND USES THEREOF” (UNIVERSIDAD DE CHILE, priority 2021, published 2025)",
  "key": {"[1]": {"system": "adult rat cardiac fibroblasts", "experiment": "Cardiac fibroblast proliferation, cell count in Neubauer chamber", "format": "cell-based", "conditions": "DMEM F-12 5% FBS, 24 h, trypan blue cell count", "procedure": "Male Sprague-Dawley rats (250-300 g) were anesthetized with ketamine-xylazine (66 and 1.6 mg/kg i.p., respectively). Adult rat cardiac fibroblasts were isolated by retrograde aortic perfusion. Briefly, hearts were digested with collagenase type B solution for 1 h, and cells were centrifuged at 500 rpm for 2 min. The supernatant, mainly adult rat cardiac fibroblasts, was centrifuged at 1000 rpm for 10 min, resuspended in Dulbecco's Modified Eagle Medium: Nutrient Mixture F-12 (DMEM F-12) plus 15% fetal bovine serum (FBS) and then seeded in nontreated culture dishes during 3 h. Cells were washed with phosphate buffered saline to eliminate debris and nonadherent cells. Adult rat cardiac fibroblasts were used at passage one and seeded on 60 mm cell culture dishes in DMEM F-12 plus 10% FBS and incubated at […] for 3 h. To synchronize cells, they were washed and incubated in DMEM F-12 (without serum, 0% FBS) for 24 h before experimentation. Cell proliferation was determined in cardiac fibroblasts incubated for 24 h with and without retro-inverse angiotensin-(1-9) in DMEM F-12 5% FBS. Cells were trypsinized and cell number was determined using trypan blue method in a Neubauer chamber."}, "[2]": {"system": "cardiomyocytes", "experiment": "Norepinephrine-induced cardiomyocyte hypertrophy, cell area and perimeter", "format": "cell-based, rat", "conditions": "100 μM peptide, norepinephrine 10 μM", "procedure": "Cardiac myocytes were isolated from neonatal Sprague-Dawley rat ventricles. Cardiac myocytes were plated at 70% final density in gelatin-coated wells (12-well plates) or in 60-mm Petri dishes and maintained at 37° C. in a humidified atmosphere of 5% CO2/95% air for 24 h in Dulbecco's Modified Eagle's medium [(DMEM)/M199](4:1) containing 10% fetal bovine serum and 5% fetal calf serum. Serum was withdrawn 24 h before preincubation with 1, 10 or 100 μM retro-inverse angiotensin-(1-9) for 1 h; then, 10 μM norepinephrine (Sigma, St Louis, Missouri, USA) were added and the cultures were incubated for 24 h. […] After centrifugation at 12,000 r.p.m. for 15 min at 4° C., the supernatat was recovered; total protein content was determined by using Bradford (BioRad protein assay, BioRad, Hercules, CA, USA). […]\nCardiomyocyte hypertrophy is characterized by an increase of cell area and perimeter. Cell area and perimeter were analyzed as follows. […] Cell area and perimeter were determined in cells fixed with 4% paraformaldehyde for 10 min and permeabilized with 0.2% Triton X100 for 6 min. […] Cell staining was evaluated by epifluorescence microscopy. At least 100 cells from randomly selected fields were analyzed using Image J software (NIH). […]"}},
  "note": "Where a SMILES comes first, the peptide text is derived from it. [ ]: non-standard residue; d: D form.",
  "data": [
    {"smiles": "CC[C@@H](C)[C@@H](NC(=O)[C@@H](Cc1c[nH]cn1)NC(=O)[C@H]1CCCN1C(=O)[C@@H](Cc1ccccc1)NC(=O)[C@H](N)Cc1c[nH]cn1)C(=O)N[C@H](Cc1ccc(O)cc1)C(=O)N[C@@H](C(=O)N[C@H](CCCNC(=N)N)C(=O)N[C@H](CC(=O)O)C(=O)O)C(C)C", "note": "[retro-inverse angiotensin-(1-9), NH2-^DH^DF^DP^DH^DI^DY^DV^DR^DD-COOH] (H-[dH][dF][dP][dH][dI][dY][dV][dR][dD]-OH)", "values": [
      {"measurement": "fibroblast proliferation", "setting": "[1]", "value": "inhibited fibroblast proliferation"},
      {"measurement": "increase of cell area induced by norepinephrine", "setting": "[2]", "value": "inhibited, in a dose response manner"},
      {"measurement": "increase of cell perimeter induced by norepinephrine", "setting": "[2]", "value": "inhibited, in a dose response manner"}
    ]}
  ]
}
